Active and inactive are the calls of the source. The rule behind the calls is not given here.
How the values were obtained:
[1] = Displacement of [125I]Ang 2 from rat liver membrane AT1 receptor after 2 hrs by micro-counter
[2] = Displacement of [125I]Ang 2 from pig uterus membrane AT2 receptor after 1.5 hrs by micro-counter; set-up: species or system Sus scrofa
NG108-15 [3] = test: Induction of neurite outgrowth in mouse/rat NG108-15 cells at 1 nM after 3 days by phase contrast microscopy in presence of PD123,319; type: functional, cell-based
NG108-15 [4] = test: Inhibition of Ang 2-induced neurite outgrowth in mouse/rat NG108-15 cells at 10 nM after 3 days by phase contrast microscopy; type: functional, cell-based
NG108-15 [5] = test: Induction of neurite outgrowth in mouse/rat NG108-15 cells at 10 nM after 3 days by phase contrast microscopy; type: functional, cell-based
NG108-15 [6] = test: Induction of neurite outgrowth in mouse/rat NG108-15 cells at 10 nM after 3 days by phase contrast microscopy in presence of PD123,319; type: functional, cell-based
NG108-15 [7] = test: Effect on neurite outgrowth in mouse/rat NG108-15 cells assessed as morphological changes at 10 uM after 3 days by phase contrast microscopy; type: functional, cell-based

| SMILES | Ki [1] | Ki [2] | further results |
| --- | --- | --- | --- |
| CCCCOC(=O)NS(=O)(=O)c1sc(CC(C)C)cc1-c1cccc(Cn2ccnc2-c2ccsc2)c1 | > 10000 nM | 33 nM |  |
| CCCCOC(=O)NS(=O)(=O)c1sc(CC(C)C)cc1-c1cccc(CN(Cc2ccccc2)C(C)=O)c1 | > 10000 nM | 79 nM |  |
| CCCCOC(=O)NS(=O)(=O)c1sc(CC(C)C)cc1-c1cccc(Cn2cnc3ccccc32)c1 | > 10000 nM | 32 nM |  |
| CCCCOC(=O)NS(=O)(=O)c1sc(CC(C)C)cc1-c1cccc(CN2CCCC2=O)c1 | > 10000 nM | 224 nM |  |
| CCCCOC(=O)NS(=O)(=O)c1sc(CC(C)C)cc1-c1cccc(Cn2ccnc2CC)c1 | > 10000 nM | 8 nM |  |
| CCCCOC(=O)NS(=O)(=O)c1sc(CC(C)C)cc1-c1cccc(CN(CC)S(=O)(=O)c2cccs2)c1 | > 10000 nM | 133 nM |  |
| CCCCOC(=O)NS(=O)(=O)c1sc(CC(C)C)cc1-c1cccc(Cn2ccnc2-c2ccccn2)c1 | > 10000 nM | 28 nM |  |
| CCCCOC(=O)NS(=O)(=O)c1sc(CC(C)C)cc1-c1cccc(C(=O)Cn2cnc3ccccc32)c1 | > 10000 nM | 20 nM | inhibition (NG108-15 [4]): Active; Activity (NG108-15 [5]): inactive; Activity (NG108-15 [6]): Active |
| CCCCOC(=O)NS(=O)(=O)c1sc(CC(C)C)cc1-c1cccc(Cn2ccnc2C)c1 | > 10000 nM | 29 nM |  |
| CCCCOC(=O)NS(=O)(=O)c1sc(CC(C)C)cc1-c1cccc(CN(Cc2ccccc2)C(=O)c2cccs2)c1 | > 10000 nM | 670 nM |  |
| CCCCOC(=O)NS(=O)(=O)c1sc(CC(C)C)cc1-c1cccc(Cn2ccnc2Cl)c1 | > 10000 nM | 9.2 nM | inhibition (NG108-15 [4]): Active; Activity (NG108-15 [5]): inactive; Activity (NG108-15 [6]): Active |
| CCCCOC(=O)NS(=O)(=O)c1sc(CC(C)C)cc1-c1cccc(CN(Cc2cccnc2)C(C)=O)c1 | > 10000 nM | 83 nM |  |
| CCCCOC(=O)NS(=O)(=O)c1sc(CC(C)C)cc1-c1cccc(CN(Cc2ccccc2)C(=O)CCCC)c1 | > 10000 nM | 35 nM |  |
| CCCCOC(=O)NS(=O)(=O)c1sc(CC(C)C)cc1-c1cccc(CN(C(=O)c2ccccc2)c2ccc(C)cc2)c1 | > 10000 nM | 46 nM |  |
| CCCCOC(=O)NS(=O)(=O)c1sc(CC(C)C)cc1-c1cccc(Cn2ccnc2-c2ccccc2)c1 | > 10000 nM | 67 nM |  |
| CCCCOC(=O)NS(=O)(=O)c1sc(CC(C)C)cc1-c1cccc(Cn2ccnc2C(C)=O)c1 | > 10000 nM | 17 nM |  |
| CCCCOC(=O)NS(=O)(=O)c1sc(CC(C)C)cc1-c1cccc(Cn2cccn2)c1 | > 10000 nM | 110 nM |  |
| CCCCOC(=O)NS(=O)(=O)c1sc(CC(C)C)cc1-c1cccc(CN2C(=O)CCC2=O)c1 | > 10000 nM | 147 nM |  |
| CCCCOC(=O)NS(=O)(=O)c1sc(CC(C)C)cc1-c1cccc(CCn2ccnc2)c1 | > 10000 nM | 118 nM |  |
| CCCCOC(=O)NS(=O)(=O)c1sc(CC(C)C)cc1-c1cccc(CN2C(=O)CN(C)C2=O)c1 | > 10000 nM | 37 nM |  |
| CCCCOC(=O)NS(=O)(=O)c1sc(CC(C)C)cc1-c1cccc(Cn2cnc3cccnc32)c1 | > 10000 nM | 66 nM |  |
| CCCCOC(=O)NS(=O)(=O)c1sc(CC(C)C)cc1-c1cccc(Cn2ccc(C(F)(F)F)n2)c1 | > 10000 nM | 233 nM |  |
| CCCCOC(=O)NS(=O)(=O)c1sc(CC(C)C)cc1-c1cccc(Cn2cnc3ncccc32)c1 | > 10000 nM | 44 nM |  |
| CCCCOC(=O)NS(=O)(=O)c1sc(CC(C)C)cc1-c1cccc(CN(Cc2cccnc2)C(=O)c2ccccc2)c1 | > 10000 nM | 47 nM | inhibition (NG108-15 [4]): Active |
| Cc1cc(Cn2cnc3c2C[C@@H](C(=O)O)N(C(=O)C(c2ccccc2)c2ccccc2)C3)ccc1N(C)C |  |  | Activity (NG108-15 [7]): inactive |
| CCCCOC(=O)NS(=O)(=O)c1sc(CC(C)C)cc1-c1cccc(Cn2ccnc2-c2cccs2)c1 | > 10000 nM | 28 nM |  |
| CCCCOC(=O)NS(=O)(=O)c1sc(CC(C)C)cc1-c1cccc(Cn2ccnc2CCCC)c1 | > 10000 nM | 10 nM |  |

More lines, main results first:

| Ki [1] | Ki [2] | SMILES | further results |
| --- | --- | --- | --- |
| > 10000 nM | 120 nM | CCCCOC(=O)NS(=O)(=O)c1sc(CC(C)C)cc1-c1cccc(CN(C(C)=O)c2ccc(C)cc2)c1 |  |
| > 10000 nM | 72 nM | CCCCOC(=O)NS(=O)(=O)c1sc(CC(C)C)cc1-c1cccc(CN(CC(F)(F)F)C(C)=O)c1 |  |
| > 10000 nM | 29 nM | CCCCOC(=O)NS(=O)(=O)c1sc(CC(C)C)cc1-c1cccc(CN(CC)C(C)=O)c1 |  |
| > 10000 nM | 1.6 nM | CCCCOC(=O)NS(=O)(=O)c1sc(CC(C)C)cc1-c1cccc(CN(C)C(=O)C(=O)OCC)c1 | Activity (NG108-15 [3]): Active |
| > 10000 nM | 2.2 nM | CCCCOC(=O)NS(=O)(=O)c1sc(CC(C)C)cc1-c1cccc(CN(CC)C(=O)c2cccs2)c1 |  |
| > 10000 nM | > 10000 nM | CCCCOC(=O)NS(=O)(=O)c1sc(CC(C)C)cc1-c1cccc(CN(C)S(C)(=O)=O)c1 |  |
| > 10000 nM | 55 nM | CCCCOC(=O)NS(=O)(=O)c1sc(CC(C)C)cc1-c1cccc(CN(C)C=O)c1 |  |
| > 10000 nM | 45 nM | CCCCOC(=O)NS(=O)(=O)c1sc(CC(C)C)cc1-c1cccc(CN(C)C(=O)OCC)c1 |  |
| > 10000 nM | 29 nM | CCCCOC(=O)NS(=O)(=O)c1sc(CC(C)C)cc1-c1cccc(CN(C)C(C)=O)c1 |  |
| > 10000 nM | 163 nM | CCCCOC(=O)NS(=O)(=O)c1sc(CC(C)C)cc1-c1cccc(CN(CC(F)(F)F)C(=O)C2CC2)c1 |  |
| > 10000 nM | 56 nM | CCCCOC(=O)NS(=O)(=O)c1sc(CC(C)C)cc1-c1cccc(CN(C)C(=O)CCCC)c1 |  |
| > 10000 nM | 13 nM | CCCCOC(=O)NS(=O)(=O)c1sc(CC(C)C)cc1-c1cccc(CN(C)C(=O)c2cccs2)c1 |  |

— ChEMBL document CHEMBL2086319, “From the first selective non-peptide AT(2) receptor agonist to structurally related antagonists” (J Med Chem, 2012)
